Results: patent US20120122931A1, “INDOLE DERIVATIVE OR PHARMACEUTICALLY ACCEPTABLE SALT THEREOF” (KISSEI PHARMACEUTICAL CO., LTD., priority 2009, published 2012)

Biological target: T1, rat EP1 receptor (Rattus norvegicus, UniProt P70597)
T1 construct: expressed in transfected cells; host or cells: COS-1 cells, transient transfection with Lipofectamine 2000
T1 sequence (P70597 1-405): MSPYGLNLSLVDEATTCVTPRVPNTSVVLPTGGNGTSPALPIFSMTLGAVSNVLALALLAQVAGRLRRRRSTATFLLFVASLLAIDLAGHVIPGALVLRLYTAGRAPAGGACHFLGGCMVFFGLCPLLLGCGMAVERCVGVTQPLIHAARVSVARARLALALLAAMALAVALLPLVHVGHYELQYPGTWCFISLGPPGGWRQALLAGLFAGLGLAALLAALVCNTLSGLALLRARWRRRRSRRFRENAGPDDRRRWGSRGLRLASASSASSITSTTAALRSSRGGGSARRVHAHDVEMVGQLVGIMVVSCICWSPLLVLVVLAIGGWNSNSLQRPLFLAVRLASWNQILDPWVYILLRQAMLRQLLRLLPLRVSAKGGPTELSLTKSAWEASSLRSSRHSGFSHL
Experiment: Test for confirmation of EP1 receptor antagonism: inhibition of prostaglandin E2-induced increase in intracellular calcium concentration (Method A or Method B)
Assay type: cell-based
Settings: rat EP1 receptor-expressing cells, prostaglandin E2 10 nM
Experimental: (1) Preparation of Rat EP1 Expression vector
Using Rat Kidney BD Marathon-Ready cDNA (Nippon Becton Dickinson Company, Ltd.) as a template, a forward primer shown in SEQ ID NO. 1, and a reverse primer shown in SEQ ID NO. 2, a first run of PCR was carried out using KOD-Plus-Ver 2.0 (Toyobo Co., Ltd.). Further, using this amplification product as a template, a forward primer shown in SEQ ID NO. 3, and a reverse primer shown in SEQ ID NO. 4, a second run of PCR was carried out in the same manner. The amplification product obtained by the second run of PCR was incorporated into a vector (pcDNA3.1 D/V5-His-TOPO (registered trademark), Invitrogen Japan K. K.). By a conventional method, the vector containing this amplification product was introduced to E. coli (One Shot TOP10 Competent Cells, Invitrogen Corporation) to transform. This transformed E. coli was cultured in an LB agar medium for one day. After the culture, colonies were selected and cultured in an LB liquid medium containing 50 μg/mL of ampicillin. After the culture, the vector was purified using a QIAprep Spin Miniprep Kit (Qiagen K. K.). The base sequence of the insertion site of this vector (SEQ ID NO. 5) was compared with the rat EP1 base sequence (Ptger1) registered as an accession number NM_013100 in well-known database (NCBI), and as a result, they all matched except for a single base. Further, the amino acid sequence translated by the base sequence completely matched the amino acid sequence of the rat EP1 receptor registered as an NCBI accession number NP_037232. Therefore, it was confirmed that the cloned gene sequence was a base sequence of the rat EP1 receptor and the obtained amino acid sequence was that of the rat EP1 receptor. The pcDNA3.1 D/V5-His-TOPO (registered trademark) to which the nucleic acid shown in SEQ ID NO. 5 had been inserted was taken as a rat EP1-expressing vector.
(2) Preparation of Rat EP1 Receptor-Expressing Cells
COS-1 cells (Dainippon Sumitomo Pharma Co., Ltd.) were cultured until it reached confluence in an incubator at 37° C. under a 5% CO2 gas condition, using a D-MEM liquid medium (high glucose and L-glutamine contained, Invitrogen Corporation) to which a penicillin-streptomycin solution (Invitrogen Corporation, final concentration: 100 U/mL as benzylpenicillin; 100 μg/mL as streptomycin) as an antibiotic, MEM nonessential amino acids (Invitrogen Corporation, final Concentration: 0.1 mM), and fetal calf serum (Sanko Junyaku Co., Ltd., final concentration: 10%) were added.
(2-2) COS-1 Cell Subculture
The cells that had reached confluence were stripped with 0.05% trypsin/0.53 mM EDTA 4Na (Invitrogen Japan K. K.) and resuspended in the above liquid medium. The resuspended cells were diluted and cultured in the above liquid medium at a spread ratio from 1:4 to 1:8.
(2-3) Preparation of Cells for Introduction of Rat EP1-Expressing Vector
The cells that had reached confluence were stripped with 0.05% trypsin/0.53 mM EDTA.4Na, and resuspended in a D-MEM liquid medium (high glucose and L-glutamine contained, Invitrogen Corporation) to which an MEM nonessential amino acid (final concentration: 0.1 mM) and fetal calf serum (final concentration: 10%) were added. In each well of a Poly D-lysine-coated 96-well microplate (BD BioCoat (registered trademark), Nippon Becton Dickinson Company, Ltd.), this resuspended cell suspension culture was prepared to be 5×10^4 cells/well in 100 μL of the liquid medium, and seeded thereon. After seeding, the cells were cultured in an incubator at 37° C. under a 5% CO2 gas condition. At a point when the cells for introduction of a rat EP1-expressing vector were adhered (about 2 hours after seeding), introduction of the rat EP1-expressing vector was carried out in the following order.
(2-4) Introduction of Rat EP1-Expressing Vector
For introduction of the rat EP1-expressing vector, Lipofectamine 2000 (Invitrogen Japan K. K.) was used. […]

[1] = Method B (Calcium kit II Fluo 4, FDSS 7000)

Compound `COc1cccc(-c2[nH]c3cc(OC)ccc3c2Cc2cccc(C(=O)O)n2)c1` [Example 11-34, 6-[6-methoxy-2-(3-methoxyphenyl)-1H-indol-3-ylmethyl]pyridine-2-carboxylic acid] has an IC50 [1] of 36 nM.

`Cc1cc2[nH]c(-c3ccc(F)cc3)c(Cc3cccc(C(=O)O)n3)c2cc1F` [Example 16-54, 6-[5-fluoro-2-(4-fluorophenyl)-6-methyl-1H-indol-3-ylmethyl]pyridine-2-carboxylic acid] gave an IC50 [1] of 47 nM.

`COc1cc2[nH]c(-c3ccsc3)c(Cc3cccc(C(=O)O)n3)c2cc1F` [Example 16-28, 6-(5-fluoro-6-methoxy-2-thiophen-3-yl-1H-indol-3-ylmethyl)pyridine-2-carboxylic acid] showed an IC50 [1] of 30 nM.

`COc1cc2c(Cc3cccc(C(=O)O)n3)c(-c3ccccc3)[nH]c2cc1C` [Example 16-78, 6-(5-methoxy-6-methyl-2-phenyl-1H-indol-3-ylmethyl)pyridine-2-carboxylic acid] showed an IC50 [1] of 24 nM.

In the case of `O=C(O)c1cccc(Cc2c(-c3ccsc3)[nH]c3cc(Cl)c(F)cc23)n1` [Example 16-52, 6-(6-chloro-5-fluoro-2-thiophen-3-yl-1H-indol-3-ylmethyl)pyridine-2-carboxylic acid], the IC50 [1] is reported as 43 nM.

Work on `COc1cc2[nH]c(C(C)C)c(Cc3cccc(C(=O)O)n3)c2cc1F` [Example 18-1, 6-(5-fluoro-2-isopropyl-6-methoxy-1H-indol-3-ylmethyl)pyridine-2-carboxylic acid] yielded an IC50 [1] of 39 nM.

In the case of `CCC(C)c1[nH]c2cc(OC)c(Cl)cc2c1Cc1cccc(C(=O)O)n1` (stereo not shown) [Example 16-107, 6-(2-sec-butyl-5-chloro-6-methoxy-1H-indol-3-ylmethyl)pyridine-2-carboxylic acid], the IC50 [1] is reported as 40 nM.

In the case of `COc1cc2c(Cc3cccc(C(=O)O)n3)c(-c3ccccc3)[nH]c2cc1Cl` [Example 16-23, 6-(6-chloro-5-methoxy-2-phenyl-1H-indol-3-ylmethyl)pyridine-2-carboxylic acid], the IC50 [1] is reported as 34 nM.

`COc1ccc2c(Cc3cccc(C(=O)O)n3)c(-c3cccc(Cl)c3)[nH]c2c1` [Example 11-21, 6-[2-(3-chlorophenyl)-6-methoxy-1H-indol-3-ylmethyl]pyridine-2-carboxylic acid] gave an IC50 (Method A (Fluo-4 NW, FlexStation)) of 23 nM.

With `CCOc1cc2[nH]c(-c3ccsc3)c(Cc3cccc(C(=O)O)n3)c2cc1F` [Example 16-79, 6-(6-ethoxy-5-fluoro-2-thiophen-3-yl-1H-indol-3-ylmethyl)pyridine-2-carboxylic acid] the IC50 [1] was 22 nM.

In the case of `COc1cc2c(Cc3cccc(C(=O)O)n3)c(-c3ccoc3)[nH]c2cc1Cl` [Example 16-105, 6-(6-chloro-2-furan-3-yl-5-methoxy-1H-indol-3-ylmethyl)pyridine-2-carboxylic acid], the IC50 [1] is reported as 26 nM.

`COc1cc2c(Cc3cccc(C(=O)O)n3)c(-c3ccsc3)[nH]c2cc1Cl` [Example 16-86, 6-(6-chloro-5-methoxy-2-thiophen-3-yl-1H-indol-3-ylmethyl)pyridine-2-carboxylic acid] gave an IC50 [1] of 18 nM.

`O=C(O)c1cccc(Cc2c(-c3ccsc3)[nH]c3cc(C4CC4)ccc23)n1` [Example 16-65, 6-(6-cyclopropyl-2-thiophen-3-yl-1H-indol-3-ylmethyl)pyridine-2-carboxylic acid] was tested, and the IC50 [1] was 14 nM.

Compound `COc1ccc2c(Cc3cccc(C(=O)O)n3)c(-c3cncc(F)c3)[nH]c2c1` [Example 16-11, 6-[2-(5-fluoropyridin-3-yl)-6-methoxy-1H-indol-3-ylmethyl]pyridine-2-carboxylic acid] has an IC50 [1] of 27 nM.

`COc1ccc2c(Cc3cccc(C(=O)O)n3)c(-c3ccoc3)[nH]c2c1` [Example 11-10, 6-(2-furan-3-yl-6-methoxy-1H-indol-3-ylmethyl)pyridine-2-carboxylic acid] showed an IC50 [1] of 15 nM.

`Cc1cc2c(Cc3cccc(C(=O)O)n3)c(-c3ccsc3)[nH]c2cc1Cl` [Example 16-92, 6-(6-chloro-5-methyl-2-thiophen-3-yl-1H-indol-3-ylmethyl)pyridine-2-carboxylic acid] showed an IC50 [1] of 30 nM.

`COc1cc2[nH]c(-c3ccsc3)c(Cc3cccc(C(=O)O)n3)c2cc1C` [Example 16-24, 6-(6-methoxy-5-methyl-2-thiophen-3-yl-1H-indol-3-ylmethyl)pyridine-2-carboxylic acid] showed an IC50 [1] of 22 nM.

For `Cc1cc2[nH]c(-c3ccsc3)c(Cc3cccc(C(=O)O)n3)c2cc1F` [Example 16-56, 6-(5-fluoro-6-methyl-2-thiophen-3-yl-1H-indol-3-ylmethyl)pyridine-2-carboxylic acid], the IC50 [1] was 39 nM.

In the case of `Cc1cc2[nH]c(-c3cccnc3)c(Cc3cccc(C(=O)O)n3)c2cc1C` [Example 16-58, 6-(5,6-dimethyl-2-pyridin-3-yl-1H-indol-3-ylmethyl)pyridine-2-carboxylic acid], the IC50 [1] is reported as 38 nM.

`COc1cc2[nH]c(-c3ccsc3)c(Cc3cccc(C(=O)O)n3)c2cc1Cl` [Example 16-29, 6-(5-chloro-6-methoxy-2-thiophen-3-yl-1H-indol-3-ylmethyl)pyridine-2-carboxylic acid] showed an IC50 [1] of 27 nM.

`O=C(O)c1cccc(Cc2c(-c3ccccc3)[nH]c3cc(C4CC4)c(F)cc23)n1` [Example 16-68, 6-(6-cyclopropyl-5-fluoro-2-phenyl-1H-indol-3-ylmethyl)pyridine-2-carboxylic acid] showed an IC50 [1] of 34 nM.

With `COc1ccc2c(Cc3cccc(C(=O)O)c3)c(-c3ccoc3)[nH]c2c1` [Example 11-15, 3-(2-furan-3-yl-6-methoxy-1H-indol-3-ylmethyl)benzoic acid] the IC50 [1] was 48 nM.
